Laboratory results: patent US8492377B2, “MTKI quinazoline derivatives” (Janssen Pharmaceutica NV, priority 2006, dated 2013)
Where a name gives a salt, the structure may show the parent alone.

Columns and labels:
human Src = human Src (Homo sapiens, UniProt P12931); assay: C1: c-Src filter assay; assay type: biochemical; details: 5 ng human Src, 1.0 μM unlabeled ATP, poly(Glu,Tyr) 4:1, 25° C., 10 minutes; read-out: C1: c-SRC filter pIC50 (converted)
Description: The in vitro inhibition of c-Src kinase was assessed using the glass-fiber filter technology as described by Davies, S. P. et al., Biochem J. (2000), 351; p. 95-105.
In the glass-fiber filter technology the activity of the kinase is measured using an appropriate substrate that is incubated with the aforementioned kinase protein in the presence of (^33P) radiolabeled ATP. (^33P) Phosporylation of the substrate is subsequently measured as radioactivity bound on a glassfiber-filter.
In an alternative filter based assay the final kinase activity was assessed using a phosphostorage screen instead of scintilation counting.
In this assay the Src kinase reaction is performed at 25° C. for 10 minutes in a 96-well microtiterplate. The 25 μl reaction volume contains 8 mM MOPS pH 7.0, 20 mM Mg-acetate, 0.2 mM Na2EDTA, 0.5 mM MnCl2, 1.0 μM unlabeled ATP, 0.2 μCi AT^33P, 20 ng poly(Glu,Tyr) 4:1 and 5 ng human Src.
The reaction is stopped by adding 5 μl of a 3% phosphoric acid solution. 5 μl of the reaction mixture is then spotted onto a Filtermat A filter (Wallac) and washed 3 times for 5 min. in 75 mM phosphoric acid and 1 time for 5 min. in methanol prior to drying and quantification on the Typhoon (Amersham) using a phosphostorage screen.

human Fyn = human Fyn (Homo sapiens, UniProt P06241); assay: C2: Fyn kinase assay; assay type: biochemical; details: 5 ng human Fyn, 1.0 μM unlabeled ATP, poly(Glu,Tyr) 4:1, 25° C., 10 minutes; read-out: C2: Fyn kinase pIC50 (converted)
Description: In this assay the Fyn kinase reaction is performed at 25° C. for 10 minutes in a 96-well microtiterplate. The 25 μl reaction volume contains 8 mM MOPS pH 7.0, 20 mM Mg-acetate, 0.2 mM Na2EDTA, 0.5 mM MnCl2, 1.0 μM unlabeled ATP, 0.2 μCi AT^33P, 20 ng poly(Glu,Tyr) 4:1 and 5 ng human Fyn.
The reaction is stopped by adding 5 μl of a 3% phosphoric acid solution. 5 μl of the reaction mixture is then spotted onto a Filtermat A filter (Wallac) and washed 3 times for 5 min. in 75 mM phosphoric acid and 1 time for 5 min. in methanol prior to drying and scintillation counting.

Chain of human Src (P12931 whole entry): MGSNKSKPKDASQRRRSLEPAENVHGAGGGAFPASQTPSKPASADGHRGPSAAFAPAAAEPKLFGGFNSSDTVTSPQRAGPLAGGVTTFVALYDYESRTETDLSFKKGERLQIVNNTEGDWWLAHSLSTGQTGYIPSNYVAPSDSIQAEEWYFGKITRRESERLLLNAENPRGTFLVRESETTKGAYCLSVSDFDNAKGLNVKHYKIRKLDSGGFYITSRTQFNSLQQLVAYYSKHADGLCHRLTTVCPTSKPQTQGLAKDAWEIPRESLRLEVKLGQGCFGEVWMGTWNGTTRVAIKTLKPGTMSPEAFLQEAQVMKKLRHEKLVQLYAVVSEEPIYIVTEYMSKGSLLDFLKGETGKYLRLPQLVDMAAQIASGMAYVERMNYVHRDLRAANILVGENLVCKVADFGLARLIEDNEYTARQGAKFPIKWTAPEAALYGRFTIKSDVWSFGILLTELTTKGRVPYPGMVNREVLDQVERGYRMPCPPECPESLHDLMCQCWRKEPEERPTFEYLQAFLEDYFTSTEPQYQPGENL
Chain of human Fyn (P06241 whole entry): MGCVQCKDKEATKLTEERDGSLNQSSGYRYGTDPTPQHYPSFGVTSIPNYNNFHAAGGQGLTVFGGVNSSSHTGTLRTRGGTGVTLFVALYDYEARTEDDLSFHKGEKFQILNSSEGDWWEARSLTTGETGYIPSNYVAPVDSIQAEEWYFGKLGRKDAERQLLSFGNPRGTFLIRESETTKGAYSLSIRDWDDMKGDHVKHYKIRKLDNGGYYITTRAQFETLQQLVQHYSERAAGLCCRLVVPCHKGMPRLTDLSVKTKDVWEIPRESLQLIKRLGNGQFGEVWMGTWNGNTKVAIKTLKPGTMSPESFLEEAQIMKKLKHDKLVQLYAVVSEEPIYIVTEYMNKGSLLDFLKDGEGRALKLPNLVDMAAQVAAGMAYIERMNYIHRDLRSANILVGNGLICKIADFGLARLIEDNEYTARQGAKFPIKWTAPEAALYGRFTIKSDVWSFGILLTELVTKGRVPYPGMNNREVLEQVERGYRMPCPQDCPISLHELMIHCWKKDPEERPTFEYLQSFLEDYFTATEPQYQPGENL

melting point	IC50 (human Src)	IC50 (human Fyn)	SMILES
224 °C	–	–	Brc1cc2c(c3c1OCO3)Nc1ncnc3cc(OCCCN4CCCC4)c(cc13)OCCCCCNC2 (as salt: HCl) [Compound B27]
244 °C	–	–	CN1CCN(CCCOc2cc3ncnc4c3cc2OCCCCCNCc2cc(Br)c3c(c2N4)OCO3)CC1 (as salt: HCl) [Compound B28]
210 to 213 °C	> 10000 nM	< 1000 nM	CN1CCCCCOc2cc3c(ncnc3cc2OCCCNC(=O)OC(C)(C)C)Nc2c(ccc3c2OCO3)C1 [Compound A56]
–	1100 nM	7.76 nM	COCCOc1cc2ncnc3c2cc1OCCCCCN(C)Cc1ccc2c(c1N3)OCO2 [Compound B2]
–	447 nM	11.7 nM	CN1CCN(CCCOc2cc3ncnc4c3cc2OCCCNCCN(C)Cc2ccc3c(c2N4)OCO3)CC1 [Compound B3]
–	1480 nM	23.4 nM	COCCOCCOc1cc2ncnc3c2cc1OCCCNCCN(C)Cc1ccc2c(c1N3)OCO2 [Compound B4]
–	501 nM	20.9 nM	CN(CCO)CCCOc1cc2ncnc3c2cc1OCCCNCCN(C)Cc1ccc2c(c1N3)OCO2 [Compound B5]
–	6460 nM	16.6 nM	COc1cc2ncnc3c2cc1OCCCCCNCc1cc(Br)c2c(c1N3)OCO2 [Compound B8]
–	1910 nM	21.9 nM	COc1cc2ncnc3c2cc1OCCCN(C)CCN(C)Cc1ccc2c(c1N3)OCO2 [Compound B10]
–	263 nM	0.275 nM	CN1CCN(CCCOc2cc3ncnc4c3cc2OCCCCCN(C)Cc2ccc3c(c2N4)OCO3)CC1 [Compound B12]
–	295 nM	3.63 nM	CN1CCCCCOc2cc3c(ncnc3cc2OCCCN2CCN(CCO)CC2)Nc2c(ccc3c2OCO3)C1 [Compound B13]
–	562 nM	0.174 nM	CN(CCO)CCCOc1cc2ncnc3c2cc1OCCCCCN(C)Cc1ccc2c(c1N3)OCO2 [Compound B15]
–	2290 nM	< 1000 nM	CN1CCCCCOc2cc3c(ncnc3cc2OCCCNC(=O)CCS(C)(=O)=O)Nc2c(ccc3c2OCO3)C1 [Compound B16]
–	> 10000 nM	40.7 nM	COc1cc2ncnc3c2cc1OCCCCCNCc1cc(Oc2ccc(C)nc2)c2c(c1N3)OCO2 [Compound B17]
–	468 nM	< 1 nM	CN1CCCCCOc2cc3c(ncnc3cc2OCCCN2CCOCC2)Nc2c(ccc3c2OCO3)C1 [Compound B18]
–	617 nM	1.23 nM	CN1CCCCCOc2cc3c(ncnc3cc2OCCCN2CCCCC2)Nc2c(ccc3c2OCO3)C1 [Compound B19]

melting point	IC50 (human Src)	IC50 (human Fyn)	SMILES
–	575 nM	0.0575 nM	CN1CCCCCOc2cc3c(ncnc3cc2OCCCN2CCCC2)Nc2c(ccc3c2OCO3)C1 [Compound B21]
–	1290 nM	> 1000 nM	CN1CCC(COc2cc3ncnc4c3cc2OCCCCCN(C)Cc2ccc3c(c2N4)OCO3)CC1 [Compound B22]
–	708 nM	< 1000 nM	CN1CCCCCOc2cc3c(ncnc3cc2OCCCN2CCS(=O)(=O)CC2)Nc2c(ccc3c2OCO3)C1 [Compound B23]
–	676 nM	< 1000 nM	CN1CCCCCOc2cc3c(ncnc3cc2OC[C@@H](O)CN2CCS(=O)(=O)CC2)Nc2c(ccc3c2OCO3)C1 [Compound B24]
–	1410 nM	5.25 nM	CN1CCCCCOc2cc3c(ncnc3cc2OC[C@H](O)CN2CCS(=O)(=O)CC2)Nc2c(ccc3c2OCO3)C1 [Compound B25]
–	2630 nM	< 1 nM	COCCOCCOc1cc2ncnc3c2cc1OCCCCCN(C)Cc1ccc2c(c1N3)OCO2 [Compound B31]
–	427 nM	< 1000 nM	CN1CCNCCCOc2cc3c(ncnc3cc2OCCCN2CCOCC2)Nc2c(ccc3c2OCO3)C1 [Compound B34]
–	631 nM	29.5 nM	COCCNCCCOc1cc2ncnc3c2cc1OCCCNCCN(C)Cc1ccc2c(c1N3)OCO2 [Compound B35]
–	> 10000 nM	19.5 nM	COc1cc2ncnc3c2cc1OCCCCCN(C)Cc1cc(Br)c2c(c1N3)OCO2 [Compound B43]
250 °C	–	120 nM	COc1cc2c3c(ncnc3c1)Nc1c(ccc3c1OCO3)CNCCCCCO2 [Compound B47]
–	1820 nM	5.75 nM	CN1CCCCCOc2cc3c(ncnc3cc2OCCC2CCN(C(=O)CCS(C)(=O)=O)CC2)Nc2c(ccc3c2OCO3)C1 [Compound B65]
–	692 nM	< 1000 nM	CN1CCCCCOc2cc3c(ncnc3cc2OCCCNCCS(C)(=O)=O)Nc2c(ccc3c2OCO3)C1 [Compound B68]
–	479 nM	6.17 nM	CN1CCCCCOc2cc3c(ncnc3cc2OCCCNCCO)Nc2c(ccc3c2OCO3)C1 [Compound B69]
–	776 nM	5.01 nM	COCCNCCCOc1cc2ncnc3c2cc1OCCCCCN(C)Cc1ccc2c(c1N3)OCO2 [Compound B70]
241 °C	–	–	CN1CCCCCOc2cc3c(ncnc3cc2OCCCNCCO)Nc2c(cc(Br)c3c2OCO3)C1 [Compound B71]
